Assay results as given in patent publication US20140121101A1, “TERNARY FUNGICIDAL COMPOSITIONS COMPRISING A DITHIINO-TETRACARBOXAMIDE FUNGICIDE” (BAYER INTELLECTUAL PROPERTY GMBH, priority 2011, published 2014).

System: Alternaria solani
Assay: Alternaria test (tomatoes)/preventive
Format: in vivo
Conditions: tomato plants, preventive spray, evaluated 3 days after inoculation
Procedure: Alternaria Test (Tomatoes)/Preventive [table] To produce a suitable preparation of active compound, 1 part by weight of active compound is mixed with the stated amounts of solvent and emulsifier, and the concentrate is diluted with water to the desired concentration. To test for preventive activity, young plants are sprayed with the preparation of active compound at the stated rate of application. After the spray coating has dried on, the plants are inoculated with an aqueous spore suspension of Alternaria solani. The plants are then placed in an incubation cabinet at approximately 20° C. and a relative atmospheric humidity of 100%. The test is evaluated 3 days after the inoculation. 0% means an efficacy which corresponds to that of the untreated control while an efficacy of 100% means that no disease is observed.

Row | SMILES | Efficacy in % found (activity found) (5 ppm a.i.) | Efficacy in % found (activity found) (0.5 ppm a.i.)
1 | Cn1c(=O)c2sc3c(=O)n(C)c(=O)c3sc2c1=O [(1.1), 2,6-dimethyl-1H,5H-[1,4]dithiino[2,3-c:5,6-c′]dipyrrole-1,3,5,7(2H,6H)-tetrone] | 0% | –
2 | OC(Cc1ccccc1Cl)(Cn1nc[nH]c1=S)C1(Cl)CC1 (stereo not drawn) [(2.41), prothioconazole] | – | 4%
3 | CON=C(C(=O)OC)c1ccccc1CON=C(C)c1cccc(C(F)(F)F)c1 [(3.22), trifloxystrobin] | – | 29%
